Among the test systems are 786-0 renal; CAKI-1 renal; EKVX NSCLC; HCC-2998 colon; K-562 leukemia; NCI-H460 lung; OVCAR-4 ovarian; SF-295 CNS; SK-MEL-2 melanoma; SK-MEL-5 melanoma.
Experiment in all cases: growth of human tumour cells (NCI), 48 h

Several values for one entry are separate records, joined by “and”; a condition that tells them apart may be missing. Identical values can stand only once.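 Interpolation was linear, between the two tested concentrations surrounding the appropriate level; five concentrations were tested over 48 hours in 96-well plates. GI50 is the concentration that inhibits growth by half. TGI: concentration producing complete growth inhibition.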

As for `C=C1C(=O)O[C@H]2[C@H]1CC/C(Cn1cc(Cn3ccc4ccccc43)nn1)=C\CC[C@@]1(C)O[C@@H]21`, the GI50 with 786-0 renal was 1590 nM; with CAKI-1 renal it was 1150 nM; with EKVX NSCLC, 1860 nM; in the assay on HCC-2998 colon it was 1930 nM; in the assay on K-562 leukemia, 1770 nM; in the assay with NCI-H460 lung, 5660 nM. The GI50 is 1670 nM in the assay with OVCAR-4 ovarian, 7870 nM in the assay with SF-295 CNS, 1730 nM with SK-MEL-2 melanoma and 1970 nM in the assay on SK-MEL-5 melanoma. For the same compound, the TGI in the assay with 786-0 renal is 3.12 µM; with CAKI-1 renal it was 2.38 µM; in the assay on EKVX NSCLC, 4.22 µM; in the assay with HCC-2998 colon, 3.66 µM; with K-562 leukemia it was 5.65 µM; in the assay with NCI-H460 lung it was 19.7 µM. Also, the TGI with OVCAR-4 ovarian came out at 3.46 µM; in the assay with SF-295 CNS, 21.3 µM; with SK-MEL-2 melanoma, 3.96 µM; in the assay with SK-MEL-5 melanoma, 4.38 µM.
Regarding `Nc1ncnc2c1nc(-c1ccccc1)n2C1OC(CO)C(O)C1O` (stereo not drawn), the TGI in the assay with 786-0 renal, in the assay on CAKI-1 renal, in the assay on EKVX NSCLC, with HCC-2998 colon, in the assay with K-562 leukemia and in the assay with NCI-H460 lung was over 100 µM in each case. The TGI with OVCAR-4 ovarian, with SF-295 CNS, in the assay on SK-MEL-2 melanoma and in the assay on SK-MEL-5 melanoma was over 100 µM each time.
Regarding `CC(=O)O[C@H]1C(=O)O[C@@H]2C[C@H]3C(C)=CC(=O)[C@@H](O)[C@]3(C)[C@H]3[C@@]4(O)OC[C@]32[C@@H]1[C@@H](C)[C@H]4O`, the TGI was 0.14 µM with 786-0 renal; 2.36 µM and 2.13 µM in the assay on CAKI-1 renal; 1.12 µM and 0.219 µM in the assay on EKVX NSCLC; 0.548 µM and 0.271 µM with HCC-2998 colon; 0.125 µM and 0.128 µM in the assay with K-562 leukemia; 0.187 µM in the assay on NCI-H460 lung. Moreover, the TGI is 0.758 µM and 0.409 µM with OVCAR-4 ovarian; 0.291 µM and 0.206 µM in the assay on SF-295 CNS; 0.197 µM and 0.259 µM in the assay with SK-MEL-2 melanoma; 0.0287 µM and 0.052 µM in the assay on SK-MEL-5 melanoma. The GI50 in the assay on CAKI-1 renal was 75.2 nM; with EKVX NSCLC it was 159 nM; in the assay with HCC-2998 colon, 32 nM; in the assay on K-562 leukemia, 18.8 nM; in the assay on NCI-H460 lung, 13.6 nM and 42.7 nM; with OVCAR-4 ovarian it was 39.4 nM. For the same compound, the GI50 with SF-295 CNS was 34 nM; with SK-MEL-2 melanoma, 28.3 nM; with SK-MEL-5 melanoma it was under 10 nM.
On to `NC(=O)N/N=C(\C(=O)C(=O)Nc1ccc(Cl)c(C(F)(F)F)c1)c1nc2ccc(C(=O)c3ccccc3)cc2[nH]c1=O`, for which the TGI with 786-0 renal, with CAKI-1 renal, in the assay with EKVX NSCLC, in the assay on HCC-2998 colon, in the assay with K-562 leukemia and with NCI-H460 lung was over 100 µM in each case. The TGI in the assay with OVCAR-4 ovarian, in the assay with SF-295 CNS, in the assay with SK-MEL-2 melanoma and with SK-MEL-5 melanoma was over 100 µM in each case.
On to `CN1CCC[C@@H]1CCO[C@](C)(c1ccccc1)c1ccc(Cl)cc1`, for which the GI50 in the assay on 786-0 renal is 5880 nM; in the assay with CAKI-1 renal, 7120 nM; in the assay on EKVX NSCLC, 10900 nM; in the assay on HCC-2998 colon it was 3410 nM; in the assay on NCI-H460 lung, 4940 nM; with OVCAR-4 ovarian it was 8460 nM. The GI50 is 2320 nM with SF-295 CNS, 5000 nM in the assay with SK-MEL-2 melanoma and 1540 nM in the assay with SK-MEL-5 melanoma. The TGI with 786-0 renal was determined as 19.7 µM; in the assay on CAKI-1 renal, 21.5 µM; in the assay with EKVX NSCLC, 25.2 µM; with HCC-2998 colon, 13.7 µM; in the assay on NCI-H460 lung it was 17.1 µM; in the assay with OVCAR-4 ovarian it was 22 µM. Further, the TGI in the assay on SF-295 CNS was 6.43 µM; in the assay with SK-MEL-2 melanoma, 16.2 µM; in the assay on SK-MEL-5 melanoma, 2.89 µM.
As to `N/C(=N\N=C\c1cccs1)NO`, the TGI with 786-0 renal, with CAKI-1 renal, in the assay on EKVX NSCLC, in the assay on HCC-2998 colon, with K-562 leukemia and in the assay on NCI-H460 lung was over 100 µM throughout. The TGI with OVCAR-4 ovarian, in the assay with SF-295 CNS and in the assay with SK-MEL-2 melanoma was over 100 µM in each case.
In the case of `CC(=O)NC(CCCCNC(=O)N(CCCl)N=O)C(=O)NCc1ccccc1` (stereo not drawn), the TGI in the assay on 786-0 renal, in the assay on CAKI-1 renal, in the assay with EKVX NSCLC, with HCC-2998 colon, in the assay on K-562 leukemia and in the assay with NCI-H460 lung was over 100 µM each time. Moreover, the TGI with OVCAR-4 ovarian, in the assay with SF-295 CNS and in the assay on SK-MEL-2 melanoma was over 100 µM in each case.
For the compound `COC(=O)C(=O)C(C(=O)C(=O)Nc1ccc(Cl)cc1C)c1nc2ccc(C(=O)c3ccccc3)cc2[nH]c1=O` (stereo not drawn), the TGI in the assay with 786-0 renal, in the assay on CAKI-1 renal, in the assay on EKVX NSCLC, in the assay with HCC-2998 colon, in the assay on K-562 leukemia and with NCI-H460 lung was over 100 µM throughout. The TGI in the assay with OVCAR-4 ovarian, in the assay on SF-295 CNS and in the assay with SK-MEL-2 melanoma was over 100 µM throughout.
Turning to `CC(=O)Nc1ccc(C(=O)NN2C(=O)C(Cl)C2c2cc(Br)ccc2O)cc1` (stereo not drawn), the TGI in the assay on 786-0 renal is over 100 µM; with EKVX NSCLC, over 100 µM; in the assay on HCC-2998 colon it was over 100 µM; in the assay on K-562 leukemia, over 100 µM; in the assay on NCI-H460 lung, over 48.5 µM; in the assay with OVCAR-4 ovarian, over 100 µM. For the same compound, the TGI in the assay with SF-295 CNS, in the assay on SK-MEL-2 melanoma and in the assay on SK-MEL-5 melanoma was over 100 µM each time.
For `CC1(C)OC(C(N)=O)=C(C(N)=O)O1`, the TGI with 786-0 renal, in the assay on CAKI-1 renal, in the assay with EKVX NSCLC, in the assay on HCC-2998 colon, in the assay with K-562 leukemia and in the assay on NCI-H460 lung was over 100 µM throughout. The TGI in the assay on OVCAR-4 ovarian, in the assay with SF-295 CNS and in the assay with SK-MEL-2 melanoma was over 100 µM throughout.
Turning to `COc1ccc(-c2nn(-c3cccc(NC(=O)Nc4ccc(Cl)c(C(F)(F)F)c4)c3)cc2-c2ccncc2)cc1Cl`, the GI50 with 786-0 renal is 1910 nM; in the assay with CAKI-1 renal, 2180 nM; with HCC-2998 colon it was 5510 nM; in the assay with NCI-H460 lung, 1990 nM; in the assay on OVCAR-4 ovarian, 2900 nM; in the assay on SF-295 CNS it was 2310 nM. In addition, the GI50 with SK-MEL-2 melanoma was 2770 nM; in the assay with SK-MEL-5 melanoma, 1690 nM. In addition, the TGI was 4.49 µM in the assay on 786-0 renal; over 100 µM in the assay on CAKI-1 renal; 27 µM in the assay on HCC-2998 colon; 8.99 µM in the assay with NCI-H460 lung; 9.8 µM in the assay with OVCAR-4 ovarian; 7.23 µM with SF-295 CNS. Moreover, the TGI with SK-MEL-2 melanoma worked out at 5.71 µM; in the assay on SK-MEL-5 melanoma, 3.61 µM.
As for `COc1cc(/C=C/C(=O)c2ccc(Nc3ncnc4ccccc34)cc2)cc(OC)c1`, the GI50 in the assay on 786-0 renal is 4200 nM; with CAKI-1 renal, 19300 nM; with EKVX NSCLC, 51900 nM; in the assay with HCC-2998 colon, 1790 nM; in the assay on NCI-H460 lung, 14200 nM; with OVCAR-4 ovarian, 4280 nM. Also, the results for the GI50 in the assay on SF-295 CNS and in the assay on SK-MEL-2 melanoma were 4310 nM and 16200 nM, respectively. For the same compound, the TGI with 786-0 renal is 14.5 µM; with CAKI-1 renal, over 100 µM; with EKVX NSCLC it was over 100 µM; in the assay with HCC-2998 colon, 3.38 µM; in the assay with NCI-H460 lung, over 100 µM; in the assay with OVCAR-4 ovarian it was 25.2 µM. Also, the figures for the TGI in the assay with SF-295 CNS and in the assay with SK-MEL-2 melanoma were 29.2 µM and 57.7 µM, respectively.
In the case of `COc1cc(/C=C2\CN(C)C/C(=C\c3cc(OC)c(OC)c(OC)c3)C2=O)cc(OC)c1OC`, the GI50 was 270 nM in the assay on 786-0 renal; 288 nM with CAKI-1 renal; 366 nM in the assay with HCC-2998 colon; 334 nM in the assay on K-562 leukemia; 252 nM in the assay on NCI-H460 lung; 342 nM in the assay on OVCAR-4 ovarian. The GI50 in the assay on SF-295 CNS was 319 nM; with SK-MEL-2 melanoma, 305 nM; in the assay with SK-MEL-5 melanoma, 204 nM. For the same compound, the TGI with CAKI-1 renal is 0.951 µM; in the assay on HCC-2998 colon it was 1.22 µM; in the assay with K-562 leukemia, over 100 µM; in the assay on NCI-H460 lung, 0.654 µM; in the assay on OVCAR-4 ovarian, 1.95 µM; with SF-295 CNS, 1.12 µM. The TGI came to 0.959 µM with SK-MEL-2 melanoma and 0.434 µM in the assay on SK-MEL-5 melanoma.
As to `C=C1C(=O)O[C@H]2[C@H]1CC/C(COC(=O)CCCCCCCCC(=O)OC/C1=C/CC[C@@]3(C)O[C@H]3[C@H]3OC(=O)C(=C)[C@@H]3CC1)=C\CC[C@@]1(C)O[C@@H]21`, the GI50 was 1750 nM in the assay with 786-0 renal; 1950 nM in the assay with EKVX NSCLC; 1900 nM with HCC-2998 colon; 2600 nM with K-562 leukemia; 2140 nM in the assay with NCI-H460 lung; 2460 nM with OVCAR-4 ovarian. Moreover, the GI50 with SF-295 CNS is 2560 nM; with SK-MEL-2 melanoma, 2800 nM; in the assay on SK-MEL-5 melanoma, 1910 nM. The TGI in the assay on 786-0 renal is 3.41 µM; in the assay with EKVX NSCLC, 4.29 µM; in the assay with HCC-2998 colon, 3.58 µM; with K-562 leukemia it was 9.7 µM; with NCI-H460 lung it was 4.4 µM; in the assay on OVCAR-4 ovarian, 7.55 µM. Besides, the TGI is 8.09 µM in the assay on SF-295 CNS, 8.2 µM in the assay on SK-MEL-2 melanoma and 3.48 µM with SK-MEL-5 melanoma.
For `COc1ccc(CNC2=C(NC(C)=O)C(=O)c3ccccc3C2=O)cc1`, the TGI was over 50 µM in the assay with 786-0 renal; 47.3 µM in the assay with EKVX NSCLC; over 50 µM in the assay on HCC-2998 colon; 26.4 µM in the assay on K-562 leukemia; over 50 µM in the assay on NCI-H460 lung; 15.1 µM in the assay with OVCAR-4 ovarian. Moreover, the results for the TGI with SF-295 CNS, in the assay with SK-MEL-2 melanoma and with SK-MEL-5 melanoma were over 50 µM, 19.2 µM and 14.1 µM, respectively.

(Values after PubChem BioAssay (NCI).)
